# Measurements from patent US4886791A, “Soluble derivatives of silybin, a method of preparing them, and pharmaceutical compositions containing them” (priority 1987, dated 1989).
# Counter-ions that a name gives are not always drawn. Like-named read-outs stand apart in the source and are kept apart here.
# Legend:
# Acute toxicity, mouse = settings: in vivo, iv
# Acute toxicity, rat = settings: in vivo, iv
# [1] = Anti-radical activity in vitro, free radical scavenging (DPPH method); settings: for IC50: DPPH method
# Procedure: The anti-radical activity of compound Ia was measured "in vitro" by testing the disappearance of the free 1,1-diphenyl-2-picrylhydrazyl (DPPH) radical (J. Pincemail et al., Stud. Org. Chem. 23, 423, 1985).
# [2] = system: liver poisoning by praseodymium; assay: Antihepatotoxic activity, praseodymium test on the rat (oral administration); type: in vivo
# From the text: (§1) In order to test its pharmacological activity, compound (Ia) has been administered intravenously and orally in liver poisoning tests, such as the praseodymium poisoning test on the rat and the phalloidine poisoning test on the mouse, both tests being widely described in the literature for use in studying the antihepatotoxic effect of silymarin and silybin (Vogel, in "Studies in Organic Chemistry, Vol. 11, Flavonoids and Bioflavonoids, page 461, Elsevier 1982).
# [3] = system: mice subjected to hypobaric anoxia; assay: Hypobaric anoxia: protective effect on survival time of mice subjected to hypoxia (i.p.); type: in vivo, mouse; settings: for ED50: Mus musculus, ip
# From the text: Table 5 gives data showing the effect of compound Ia on the survival time of mice subjected to hypobaric anoxia. In this test (M. Nakanishi et al., Life Sciences, 13, 467, 1973), compound Ia was intraperitoneally injected half an hour before the anoxia.
# [4] = system: liver poisoning by praseodymium; assay: Antihepatotoxic activity, praseodymium test on the rat (i.v. administration); type: in vivo
# From the text: as §1
# Silybin 11-phosphate was intravenously administered one hour before the praseodymium (10 mg/kg i.v.).
# [5] = system: poisoning with phalloidine; assay: Antihepatotoxic activity, mouse poisoned with phalloidine (i.v. administration); type: in vivo; settings: for Death Rate: 10 animals/group
# From the text: as §1
# Silybin dihemisuccinate, when tested at a dose equal to 1/13 of the LD50 i.v. in the mouse, protected only 60% of the mice from death by phalloidine (Table 4).
# Mouse = settings: i.v., A. Desplaces et al., 1975; cited from earlier work
# Rat = settings: i.v., A. Desplaces et al., 1975; cited from earlier work
# [6] = corresponds to μM silybin, read-out: IC50, corresponding silybin concentration
# [7] = read-out: IC50 (confidence limits p = 0.95)
# [8] = rat, simultaneously with praseodymium
# [9] = corresponds to mg/kg silybin, read-out: Survival Time ED50, corresponding silybin dose
# [10] = half an hour before the anoxia, read-out: Survival Time ED50 (confidence limits p = 0.95)
smiles,measurement,setting,value
"COc1cc(C2Oc3cc(C4Oc5cc(O)cc(O)c5C(=O)C4O)ccc3OC2COP(=O)(O)O)ccc1O (stereo not drawn) [Silybin 11-phosphate (Ia, sodium salt), sodium salt of silybin 11-phosphate]",LD50,"Acute toxicity, mouse",235 mg/kg
same,LD50,"Acute toxicity, rat",415 mg/kg
"COc1cc(C2Oc3cc(C4Oc5cc(O)cc(O)c5C(=O)C4O)ccc3OC2COP(=O)(O)O)ccc1O (stereo not drawn) [Silybin 11-phosphate (Ia), Silybin 11-phosphate]",IC50,[1]; [6],85 µM
same,IC50,[1]; [7],107 µM
same,Activity in destroying free radicals,"[1]; in vitro, DPPH",significantly active in destroying free radicals
same,Anti-radical activity relative to silybin or succinylsilybin,[1]; more active than either silybin or succinylsilybin,about 3.5 times
same,Antihepatotoxic activity compared with silybin,[2],greater than that of silybin
same,"ALAT, percentage variation relative to the praseodymium group","[2]; rat, 315 mg/kg",-78%
same,"ASAT, percentage variation relative to the praseodymium group","[2]; rat, 315 mg/kg",-75%
same,"Serum enzymes ALAT, m ± s.e.","[2]; rat, 315 mg/kg",783.3 ± 304.6 U/L
same,"Serum enzymes ASAT, m ± s.e.","[2]; rat, 315 mg/kg, simultaneously with praseodymium",931.7 ± 299.0 U/L
same,Activity in counteracting the increase in the two serum transaminases compared with silybin,[2]; [8],considerably more active than silybin alone
same,Activity in counteracting the increase in the two serum transaminases compared with silybin dihemisuccinate,[2]; [8],as active as silybin dihemisuccinate
same,Activity in prolonging the survival time,[3],active in prolonging the survival time
same,Activity in prolonging the survival time compared with succinylsilybin,[3],significantly more active than succinylsilybin
same,ED50,[3]; [9],36.3 mg/kg
same,ED50,[3]; [10],45.7 mg/kg
same,Pharmacological activity compared with silybin dihemisuccinate,"[4]; intravenous, liver poisoning tests (praseodymium rat, phalloidine mouse)",much higher pharmacological activity than silybin dihemisuccinate
same,"ALAT, percentage variation relative to the praseodymium group","[4]; rat, i.v., 6.32 mg/kg",-71%
same,"ASAT, percentage variation relative to the praseodymium group","[4]; rat, i.v., 6.32 mg/kg",-54%
same,"Liver Wt, m ± s.e.","[4]; rat, i.v., 6.32 mg/kg",12.6 ± 0.5 g
same,"Liver Wt, percentage variation relative to the praseodymium group","[4]; rat, i.v., 6.32 mg/kg",-10%
same,"Liver triglycerides, m ± s.e.","[4]; rat, i.v., 6.32 mg/kg",4792.4 ± 1068.8
same,"Liver triglycerides, percentage variation relative to the praseodymium group","[4]; rat, i.v., 6.32 mg/kg",-41%
same,"Serum enzymes ALAT, m ± s.e.","[4]; rat, i.v., 6.32 mg/kg",495.0 ± 244.6 U/L
same,"Serum enzymes ASAT, m ± s.e.","[4]; rat, i.v., 6.32 mg/kg, 1 h before praseodymium 10 mg/kg i.v.",877.0 ± 420.5 U/L
same,"ALAT, percentage variation relative to the praseodymium group","[4]; rat, i.v., 15.8 mg/kg",-97%
same,"ASAT, percentage variation relative to the praseodymium group","[4]; rat, i.v., 15.8 mg/kg",-95%
same,"Liver Wt, m ± s.e.","[4]; rat, i.v., 15.8 mg/kg",8.7 ± 0.2 g
same,"Liver Wt, percentage variation relative to the praseodymium group","[4]; rat, i.v., 15.8 mg/kg",-30%
same,"Liver triglycerides, m ± s.e.","[4]; rat, i.v., 15.8 mg/kg",672.7 ± 100.5
same,"Liver triglycerides, percentage variation relative to the praseodymium group","[4]; rat, i.v., 15.8 mg/kg",-92%
same,"Serum enzymes ALAT, m ± s.e.","[4]; rat, i.v., 15.8 mg/kg",31.3 ± 3.2 U/L
same,"Serum enzymes ASAT, m ± s.e.","[4]; rat, i.v., 15.8 mg/kg",90.9 ± 8.9 U/L
same,Effect on praseodymium-induced increases,"[4]; rat, i.v., dose equal to 1/26 of the LD50",inhibited the increase in activity of the two serum transaminases and the increase in the weight of the liver and the hepatic triglycerides
same,Activity in the praseodymium test,"[4]; rat, i.v., dose of 1/65 of the LD50",Activity was maintained
same,Activity compared with silybin dihemisuccinate in the phalloidine test,[5]; 63 and 126 mg/kg i.v.,markedly superior to silybin dihemisuccinate
same,Percentage of deaths,"[5]; i.v., 15.8 mg/kg",0%
same,Death Rate,"[5]; i.v., 15.8 mg/kg, 1 h before phalloidine 3 mg/kg i.p.",0
same,Protection from death by phalloidine,"[5]; i.v., dose equal to 1/15 of the LD50 i.v.",protected all the mice from death
"COc1cc(C2Oc3cc([C@H]4Oc5cc(O)cc(O)c5C(=O)[C@@H]4O)ccc3OC2CO)ccc1O (stereo partly drawn) [Silybin, silybin]",IC50,[1]; [7],327 µM
same,"ALAT, percentage variation relative to the praseodymium group","[2]; rat, 250 mg/kg",+1%
same,"ASAT, percentage variation relative to the praseodymium group","[2]; rat, 250 mg/kg",-2%
same,"Serum enzymes ALAT, m ± s.e.","[2]; rat, 250 mg/kg",3620 ± 795.8 U/L
same,"Serum enzymes ASAT, m ± s.e.","[2]; rat, 250 mg/kg",3680.2 ± 885.6 U/L
"COc1cc(C2Oc3cc(C4Oc5cc(O)cc(O)c5C(=O)C4OC(=O)CCC(=O)O)ccc3OC2COC(=O)CCC(=O)O)ccc1O (stereo not drawn) [Silybin dihemisuccinate, silybin dihemisuccinate]",LD50,Mouse,970(1) (931-1010) mg/kg
same,IC50,[1]; [6],322 µM
same,IC50,[1]; [7],565 µM
same,"ALAT, percentage variation relative to the praseodymium group","[2]; rat, 375 mg/kg",-75%
same,"ASAT, percentage variation relative to the praseodymium group","[2]; rat, 375 mg/kg",-70%
same,"Serum enzymes ALAT, m ± s.e.","[2]; rat, 375 mg/kg",886.7 ± 395.1 U/L
same,"Serum enzymes ASAT, m ± s.e.","[2]; rat, 375 mg/kg",1118.3 ± 512.0 U/L
same,LD50,Rat,920(1) (906-940) mg/kg
same,ED50,[3]; [9],97.3 mg/kg
same,ED50,[3]; [10],108 mg/kg
same,"ALAT, percentage variation relative to the praseodymium group","[4]; rat, i.v., 7.5 mg/kg",-21%
same,"ASAT, percentage variation relative to the praseodymium group","[4]; rat, i.v., 7.5 mg/kg",-11%
same,"Liver Wt, m ± s.e.","[4]; rat, i.v., 7.5 mg/kg",12.6 ± 0.5 g
same,"Liver Wt, percentage variation relative to the praseodymium group","[4]; rat, i.v., 7.5 mg/kg",-3%
same,"Liver triglycerides, m ± s.e.","[4]; rat, i.v., 7.5 mg/kg",6692.8 ± 738.3
same,"Liver triglycerides, percentage variation relative to the praseodymium group","[4]; rat, i.v., 7.5 mg/kg",-18%
same,"Serum enzymes ALAT, m ± s.e.","[4]; rat, i.v., 7.5 mg/kg",1366. ± 343.1 U/L
same,"Serum enzymes ASAT, m ± s.e.","[4]; rat, i.v., 7.5 mg/kg",1672.0 ± 292.8 U/L
same,"ALAT, percentage variation relative to the praseodymium group","[4]; rat, i.v., 37.5 mg/kg",+64%
same,"ASAT, percentage variation relative to the praseodymium group","[4]; rat, i.v., 37.5 mg/kg",+38%
same,"Liver Wt, m ± s.e.","[4]; rat, i.v., 37.5 mg/kg",12.6 ± 0.4 g
same,"Liver Wt, percentage variation relative to the praseodymium group","[4]; rat, i.v., 37.5 mg/kg",+1%
same,"Liver triglycerides, m ± s.e.","[4]; rat, i.v., 37.5 mg/kg",7083.9 ± 747.5
same,"Liver triglycerides, percentage variation relative to the praseodymium group","[4]; rat, i.v., 37.5 mg/kg",-19%
same,"Serum enzymes ALAT, m ± s.e.","[4]; rat, i.v., 37.5 mg/kg",1988.3 ± 465.3 U/L
same,"Serum enzymes ASAT, m ± s.e.","[4]; rat, i.v., 37.5 mg/kg",2600.0 ± 570.9 U/L
same,"ALAT, percentage variation relative to the praseodymium group","[4]; rat, i.v., 75 mg/kg",-65%
same,"ASAT, percentage variation relative to the praseodymium group","[4]; rat, i.v., 75 mg/kg",-53%
same,"Liver Wt, m ± s.e.","[4]; rat, i.v., 75 mg/kg",12.1 ± 0.5 g
same,"Liver Wt, percentage variation relative to the praseodymium group","[4]; rat, i.v., 75 mg/kg",-1%
same,"Liver triglycerides, m ± s.e.","[4]; rat, i.v., 75 mg/kg",9221.0 ± 910.4
same,"Liver triglycerides, percentage variation relative to the praseodymium group","[4]; rat, i.v., 75 mg/kg",+11%
same,"Serum enzymes ALAT, m ± s.e.","[4]; rat, i.v., 75 mg/kg",422.9 ± 85.6 U/L
same,"Serum enzymes ASAT, m ± s.e.","[4]; rat, i.v., 75 mg/kg",887.0 ± 63.1 U/L
same,Activity in the praseodymium test,"[4]; rat, i.v., lower doses comparable with those of compound (Ia)",no activity
same,Dose for preventing praseodymium poisoning,"[4]; rat, i.v., LD50 reported in the literature",1/12
same,Percentage of deaths,"[5]; i.v., 75.0 mg/kg",40%
same,Death Rate,"[5]; i.v., 75.0 mg/kg",4
same,Mice protected from death by phalloidine,"[5]; i.v., dose equal to 1/13 of the LD50 i.v.",60%
